System: Nitrosomonas europaea IF014298
Test: in-vitro nitrification bacteria biological luminescence test
Type: cell-based
Procedure: Observation was conducted using in-vitro nitrification bacteria. Explanation is first made of preparation of suspension of the nitrification bacteria used for observation.
The nitrification bacteria (Nitrosomonas europaea IF014298. See Non-Patent Reference 4.) with a bacteria-origin luciferase gene (luxAB) introduced therein was aerobically cultivated in P culture media containing 25 mg/1000 cm^3 of kanamycin at 30° C. for 7-9 days, and after washing, suspended in fresh P culture media, thereby nitrification bacteria suspension was prepared. This nitrification bacteria suspension was kept in the dark place for 30 minutes or longer before experiment.
The composition of P culture media consists of 2.5 g of (NH4)2SO4, 0.7 g of KH2PO4, 13.5 g of Na2HPO4, 0.5 g of NaHCO3, 100 mg of MgSO4-7H2O, 5 mg of CaCl2-2H2O, 1 mg of Fe-EDTA, and 1000 cm^3 of water, and its pH was 8.0.
Nitrification function was evaluated by, after mixing in-vitro the aqueous solution of nitrification bacteria suspension consisting of 0.25 cm^3 of said nitrification bacteria suspension and 0.2 cm^3 of water and 0.01 cm^3 of the sample solution of each Example and Comparative Example, measuring biological luminescence accompanying nitrification reaction during cultivation at 15° C. for 30 minutes using a luminometer (Turner Designs, TD20/20). […] Therefore, the luminescence of the case where a sample solution of each Example and Comparative Example is added to the aqueous solution of nitrification bacteria suspension divided by the luminescence of the case of aqueous bacteria suspension without addition of a sample solution of each Example and Comparative Example was defined as nitrification-inhibitory ratio.
The concentration of sample solutions of each Example and Comparative Example in this case was 20 ppm.
Measurement was conducted as mentioned above with the concentration of sample solutions of each Example and Comparative Example in the aqueous nitrification bacteria suspension varying 0-20 ppm.

[1] = sample concentration 20 ppm, 15° C., 30 minutes

In the case of `CCCCC/C=C\C/C=C\CCCCCCCC(=O)OC` [methyl linoleate], the “80% inhibition concentration (concentration at which nitrification-inhibitory ratio was 80%)” value is reported as about 8 ppm, the nitrification-inhibitory ratio (sample concentration 8 ppm) is reported as 80% and the nitrification-inhibitory ratio (sample concentration 12 ppm) is reported as 90%. It also gave a nitrification-inhibitory ratio (sample concentration 16 ppm) of 92% and a nitrification-inhibitory ratio [1] of 95%.

`CCCCC/C=C\C/C=C\CCCCCCCC(=O)O` [linoleic acid] was tested, and the “80% inhibition concentration (concentration at which nitrification-inhibitory ratio was 80%)” value was “about 16 ppm”, the nitrification-inhibitory ratio (sample concentration 8 ppm) was 40% and the nitrification-inhibitory ratio (sample concentration 12 ppm) was 65%. The nitrification-inhibitory ratio (sample concentration 16 ppm) was 90% and the nitrification-inhibitory ratio [1] was 95%.

In the case of `CCCCCCCC/C=C\CCCCCCCC(=O)OC` [methyl oleate, reference compound], the “inhibition of nitrification reaction (in words)” value (shortened to “inhibition … (in words)”) (sample concentration 20 ppm) is reported as “not inhibited”.

For `CCCCC/C=C\C/C=C\CCCCCCCC(=O)OCC` [ethyl linoleate, reference compound], the “inhibition … (in words)” value (sample concentration 20 ppm) was “not inhibited”.

`N#CN=C(N)N` [dicyandiamide, reference compound] was tested, and the “80% inhibition concentration (concentration at which nitrification-inhibitory ratio was 80%)” value was 185 ppm.

With `CCCCC/C=C\C/C=C\C/C=C\C/C=C\CCCC(=O)O` [arachidonic acid, reference compound] the “inhibition … (in words)” value (sample concentration 20 ppm) was “not inhibited”.

With `CCCCCCCC/C=C\CCCCCCCC(=O)O` [oleic acid, reference compound] the “inhibition … (in words)” value (sample concentration 20 ppm) was “not inhibited”.

`CC/C=C\C/C=C\C/C=C\CCCCCCCC(=O)OC` [methyl α-linolenate, reference compound] was tested, and the “inhibition … (in words)” value (sample concentration 20 ppm) was “not inhibited”.

`Clc1cccc(C(Cl)(Cl)Cl)n1` [nitrapyrin, 2-chloro-6-Trichloromethylpyridine, reference compound] was tested, and the “80% inhibition concentration (concentration at which nitrification-inhibitory ratio was 80%)” value was 4 ppm.

With `CCCCC/C=C\C/C=C\C/C=C\CCCCC(=O)O` [γ-linolenic acid] the “80% inhibition concentration (concentration at which nitrification-inhibitory ratio was 80%)” value was “about 16 ppm”, the nitrification-inhibitory ratio (sample concentration 8 ppm) was 30% and the nitrification-inhibitory ratio (sample concentration 12 ppm) was 72%. It also gave a nitrification-inhibitory ratio (sample concentration 16 ppm) of 90% and a nitrification-inhibitory ratio [1] of 95%.

In the case of `CC/C=C\C/C=C\C/C=C\CCCCCCCC(=O)O` [α-linolenic acid], the “80% inhibition concentration (concentration at which nitrification-inhibitory ratio was 80%)” value is reported as about 12 ppm, the nitrification-inhibitory ratio (sample concentration 8 ppm) is reported as 40% and the nitrification-inhibitory ratio (sample concentration 12 ppm) is reported as 80%. It also gave a nitrification-inhibitory ratio (sample concentration 16 ppm) of 90% and a nitrification-inhibitory ratio [1] of 95%.

For `CCCCCCCCCCCCCCCCCC(=O)O` [stearic acid, reference compound], the “inhibition … (in words)” value (sample concentration 20 ppm) was “not inhibited”.

Reference: patent US7892312B2, “Nitrification inhibitor and soil improver and fertilizer containing the same” (priority 2005, dated 2011)
